Source: PubChem BioAssay AID1918957 (Molecular Pharmacology Branch, DTP, NCI, 2023)

Test system: NCI-H1876 complex spheroid viability
Assay: Anticancer human tumor NCI-H1876 cell line growth inhibition [LSD1];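 note: spheroids exposed to compounds for one week before readout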;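 for viability, T/C: 100% = DMSO vehicle-treated spheroids so lower means fewer viable cells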
Conditions: for IC50: curve of first compound; for viability, T/C: stronger effect = lower value
Outline: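 Multicellular complex spheroids of tumor cells with human endothelial cells (HUVEC) and mesenchymal stem cells; the LSD1 inhibitor iadademstat was combined with standard-of-care or investigational agents. Top concentration at or near clinical Cmax, half-log dilutions; final DMSO ≤0.25%.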

[1] = second compound 0.1 µM, first compound 0.000316 µM
[2] = second compound 0.1 µM, first compound 0.001 µM
[3] = second compound 0.1 µM, first compound 0.00316 µM
[4] = second compound 0.1 µM, first compound 0.01 µM
[5] = second compound 0.1 µM, first compound 0.0316 µM
[6] = second compound 0.1 µM, first compound 0.1 µM
[7] = second compound 0.316 µM, first compound 0.000316 µM
[8] = second compound 0.316 µM, first compound 0.001 µM
[9] = second compound 0.316 µM, first compound 0.00316 µM
[10] = second compound 0.316 µM, first compound 0.01 µM
[11] = second compound 0.316 µM, first compound 0.0316 µM
[12] = second compound 0.316 µM, first compound 0.1 µM
[13] = second compound 1 µM, first compound 0.000316 µM
[14] = second compound 1 µM, first compound 0.001 µM
[15] = second compound 1 µM, first compound 0.00316 µM
[16] = second compound 1 µM, first compound 0.01 µM
[17] = second compound 1 µM, first compound 0.0316 µM
[18] = second compound 1 µM, first compound 0.1 µM
[19] = second compound 3.16 µM, first compound 0.000316 µM
[20] = second compound 3.16 µM, first compound 0.001 µM
[21] = second compound 3.16 µM, first compound 0.00316 µM
[22] = second compound 3.16 µM, first compound 0.01 µM
[23] = second compound 3.16 µM, first compound 0.0316 µM
[24] = second compound 3.16 µM, first compound 0.1 µM
[25] = second compound 10 µM, first compound 0.000316 µM
[26] = second compound 10 µM, first compound 0.001 µM
[27] = second compound 10 µM, first compound 0.00316 µM
[28] = second compound 10 µM, first compound 0.01 µM
[29] = second compound 10 µM, first compound 0.0316 µM
[30] = second compound 10 µM, first compound 0.1 µM

| SMILES | IC50 (second compound 0.1 µM) [nM] | IC50 (second compound 0.316 µM) [nM] | IC50 (second compound 1 µM) [nM] | IC50 (second compound 3.16 µM) [nM] | IC50 (second compound 10 µM) [nM] | viability, T/C [3] [%] | viability, T/C [4] [%] | viability, T/C [5] [%] | viability, T/C [6] [%] | viability, T/C [9] [%] | viability, T/C [10] [%] | viability, T/C [11] [%] | viability, T/C [12] [%] | viability, T/C [15] [%] | viability, T/C [16] [%] | viability, T/C [17] [%] | viability, T/C [18] [%] | viability, T/C [21] [%] | viability, T/C [22] [%] | viability, T/C [23] [%] | other results |
| --- | --- | --- | --- | --- | --- | --- | --- | --- | --- | --- | --- | --- | --- | --- | --- | --- | --- | --- | --- | --- | --- |
| CC(C)CC(NC(=O)C(Cc1ccccc1)NC(=O)c1cnccn1)B(O)O (stereo not given) + NC1CC1c1ccc(-c2cccc(O)c2)cc1 | 0.406 | 0.444 | 0.446 | 0.374 | < 0.316 | 0.19 | 0.14 | 0.14 | 0.24 | 0.17 | 0.12 | 0.15 | 0.21 | 0.22 | 0.31 | 0.13 | 0.22 | 0.22 | 0.16 | 0.14 | viability, T/C [1]: 63.8%; viability, T/C [2]: 0.34%; viability, T/C [7]: 70.6%; viability, T/C [8]: 0.44%; viability, T/C [13]: 71.2%; viability, T/C [14]: 0.42%; viability, T/C [19]: 58.4%; viability, T/C [20]: 0.35%; viability, T/C [24]: 0.24%; viability, T/C [25]: 41.6%; viability, T/C [26]: 0.43%; viability, T/C [27]: 0.48%; viability, T/C [28]: 0.28%; viability, T/C [29]: 0.26%; viability, T/C [30]: 0.34% |
| CC(C)CC(NC(=O)CNC(=O)c1cc(Cl)ccc1Cl)B1OC(=O)CC(CC(=O)O)(C(=O)O)O1 (stereo not given) + NC1CC1c1ccc(-c2cccc(O)c2)cc1 | 7.7 | 7.44 | 7.44 | 7.35 | 6.63 | 105 | 34.6 | 1.61 | 0.3 | 97.3 | 33.7 | 1.47 | 0.31 | 102 | 32.1 | 1.86 | 0.31 | 98.4 | 32.5 | 1.08 | viability, T/C [1]: 98.9%; viability, T/C [2]: 103%; viability, T/C [7]: 108%; viability, T/C [8]: 101%; viability, T/C [13]: 105%; viability, T/C [14]: 103%; viability, T/C [19]: 110%; viability, T/C [20]: 106%; viability, T/C [24]: 0.3%; viability, T/C [25]: 103%; viability, T/C [26]: 102%; viability, T/C [27]: 87%; viability, T/C [28]: 29.6%; viability, T/C [29]: 0.75%; viability, T/C [30]: 0.39% |
| COc1cc(Nc2ncc3c(n2)-c2ccc(Cl)cc2C(c2c(F)cccc2OC)=NC3)ccc1C(=O)O + NC1CC1c1ccc(-c2cccc(O)c2)cc1 | 28.5 | 37 | 35.9 | 30.1 | 41.2 | 69.2 | 61.6 | 48.2 | 35.7 | 64.9 | 64.5 | 50.2 | 37.5 | 78.4 | 62.1 | 51.5 | 40.5 | 65.9 | 58.4 | 49.8 | viability, T/C (second compound 0.1 µM, first compound 0.316 µM): 30.2%; viability, T/C (second compound 0.1 µM, first compound 1 µM): 16.3%; viability, T/C (second compound 0.316 µM, first compound 0.316 µM): 26%; viability, T/C (second compound 0.316 µM, first compound 1 µM): 15.8%; viability, T/C (second compound 1 µM, first compound 0.316 µM): 27.1%; viability, T/C (second compound 1 µM, first compound 1 µM): 16.2%; viability, T/C [24]: 38.5%; viability, T/C (second compound 3.16 µM, first compound 0.316 µM): 27.9%; viability, T/C (second compound 3.16 µM, first compound 1 µM): 15%; viability, T/C [27]: 64.3%; viability, T/C [28]: 62.1%; viability, T/C [29]: 53.1%; viability, T/C [30]: 38.7%; viability, T/C (second compound 10 µM, first compound 0.316 µM): 31.1%; viability, T/C (second compound 10 µM, first compound 1 µM): 17.2% |
